Assay [1] has as its system HeLa cells expressing H2B-GFP. As to the kind of experiment: Induction of mitotic arrest (EC50), mitotic index by phospho-histone 3 staining. It counts as cell-based. The settings on record: Homo sapiens, concentration for 50% induction of mitotic arrest, overnight, read-out: EC50 (mitosis) (HeLa). The method, then:
Parallel plates were treated overnight with the compounds to visualize the mitotic cells by staining with anti-phospho-histone 3 and Alexafluor 546 nm secondary antibodies after fixation with 4% paraformaldehyde. Following imaging of the nuclear GFP and phospho-histone 3 signals using an IN Cell Analyser (GE Healthcare), determination of the mitotic index by analysis of the images with Developer™ software (GE Healthcare) permitted estimation of the concentration that leads to 50% induction of the mitotic arrest (EC50). It can be seen that inhibition of cell proliferation and mitosis correlate well for the compounds tested.

Assay [2] relates to HeLa cells expressing H2B-GFP. As to the kind of experiment: Inhibition of cell proliferation (GI50) by nuclear counts, IN Cell Analyser. The settings on record: for GI50: Homo sapiens; for GI50 / Anti-proliferative activity (effect of substitution, in words): HeLa; for GI50 / GI50 (HeLa): concentration causing 50% inhibition of cell proliferation, nuclear counts every 24 hours; for Anti-proliferative activity (effect of substitution, in words): text comment on Table 3. It is filed as cell-based, human. Here is the method: Table 3 HeLa cells expressing H2B-GFP were plated in 96-well plates and exposed to concentrations ranging from 100 μM to […] of the indicated compounds C1-C78. The number of cells was then determined every 24 hours by imaging of the plates using an IN Cell Analyser (GE Healthcare), followed by measurement of the number of intact cell nuclei using Developer™ software (GE Healthcare). Drug concentrations that cause 50% inhibition of cell proliferation (GI50) were determined from the nuclear counts using GraphPad Prism software or ED50v10 freeware.

Experimental findings from patent US20120238604A1, “CYTOTOXIC COMPOUNDS” (Molecular Discovery Systems, priority 2009, published 2012) are described below.

Where two headings read alike, the source gives them in different places.

For orientation: EC50 means the concentration at which the effect is half-maximal. For the molecule `CCOc1ccccc1NC(=S)N/N=C/c1cccnc1OC` [CB73], the EC50 in assay [1] (values in nM) was around 1000 nM.

For orientation: GI50 means the concentration giving 50% growth inhibition. Consider `COc1ccccc1/C=N/NC(=S)Nc1ccccc1Br` [CB35], for which the GI50 in assay [2] was 50 nM. The EC50 in assay [1] (values in nM) came to 100 nM.

Turning to `COc1cccc(NC(=S)N/N=C/c2ccccc2OC)c1` [C26], in assay [2], it took 1300 nM to inhibit growth by half (GI50). In assay [1] (values given in μM), the EC50 is around 1000 nM.

For the molecule `CCOc1ccccc1NC(=S)N/N=C/c1cnccc1OC` [CB67], in assay [1] (values in nM), the EC50 is above 3000 nM.

In the case of `CCOCCOc1ccccc1NC(=S)N/N=C/c1ccccc1OC` [CB63], the EC50 in assay [1] (values in nM) was around 2000 nM.

With `CCOc1ccccc1NC(=S)N/N=C/c1cc(N(O)O)ccc1OC` [CB68], the EC50 in assay [1] (values in nM) is above 10000 nM.

For `COc1ccccc1/C=N/NC(=S)Nc1ccc2c(c1)OCO2` [CB76], in assay [1] (values in nM), the EC50 was above 10000 nM.

As to `COc1ccccc1/C=N/NC(=S)Nc1ccc(-c2ccccc2)cc1OC(F)(F)F` [CB64], the EC50 in assay [1] (values in nM) is above 10000 nM.

Regarding `COc1ccccc1/C=N/NC(=S)Nc1ccc(Cl)cc1C(F)(F)F` [CB62], in assay [1] (values in nM), the EC50 is around 50 nM.

The molecule `COc1ccccc1/C=N/NC(=O)Nc1cccc(C)c1` [C14] yielded a GI50 in assay [2] of 4000 nM.

As for `COc1ccccc1/C=N/NC(=S)Nc1ccc(C)cc1C` [CB42], in assay [2], the “Anti-proliferative activity (effect of substitution, in words)” value (“Anti-proliferative activity” for short) was “greatly increase the anti-proliferative activity” and the GI50 turned out to be 9.5 nM.

As to `COc1ccccc1/C=N/NC(=S)NC1CCCCC1` [C12], in assay [2], the GI50 is at least 20000 nM.

As for `COc1ccccc1/C=N/NC(=S)Nc1ccccc1CCO` [CB57], the EC50 in assay [1] (values in nM) is around 2000 nM.

Molecule `COc1ccccc1/C=N/NC(=S)Nc1cnccc1C` [CB53] had a GI50 in assay [2] of around 10000 nM.

On to `COc1cccc(OC)c1/C=N/NC(=S)Nc1cccc(C)c1` [C21], for which the “GI50 (HeLa)” value in assay [2] is “no activity”.

With `COc1ccccc1/C=N/NC(=S)Nc1cccnc1` [CB77], the EC50 in assay [1] (values in nM) was around 2000 nM.

As for `C#Cc1ccccc1NC(=S)N/N=C/c1ccccc1OC` [CB33], in assay [2], the concentration for 50% growth inhibition (GI50) is 1000 nM.

In assay [2], `COc1ccccc1/C=N/NC(=S)Nc1ccccc1` [C7] returned a GI50 of 5000 nM.

In turn, `COc1ccccc1/C=N/NC(=S)Nc1cccc(Cl)c1OC` [CB32] returned a GI50 in assay [2] of 25 nM.

For the molecule `COc1ccccc1/C=N/NC(=S)Nc1cccc2ccccc12` [CB49], the GI50 in assay [2] fell in the range of 100 to 300 nM.

In assay [2], `COc1cc(C)c(NC(=S)N/N=C/c2ccccc2OC)cn1` [CB47] returned a GI50 of around 300 nM.

Consider `COc1ccccc1/C=N/NC(=S)Nc1ccc(F)cc1C(F)(F)F` [CB61], for which the EC50 in assay [1] (values in nM) is around 200 nM.

`COc1ccccc1/C=N/NC(=S)Nc1ccc(Cl)cc1` [C13] gave a GI50 in assay [2] of 1000 nM.

As for `COc1ccccc1/C=N/NC(=S)Nc1cccnc1OC` [CB54], in assay [2], the concentration for 50% growth inhibition (GI50) worked out at 17 nM.

`COc1ccccc1/C=N/NC(=S)Nc1cccc(C)n1` [CB55] yielded a GI50 in assay [2] of around 1000 nM.

In the case of `COc1ccccc1/C=N/NC(=S)Nc1cc(C(=O)O)ccc1OC` [CB58], the concentration for a half-maximal effect (EC50) in assay [1] (values in nM) was around 10000 nM.

Regarding `FC(F)(F)c1ccccc1NC(=S)N/N=C/c1cccc2c1OCO2` [CB40], in assay [2], halving of growth (GI50) required 500 nM.

Consider `COc1ccccc1/C=N/NC(=S)Nc1ccccc1OC(F)(F)F` [CB60], for which, in assay [1] (values in nM), the half-maximal effective concentration (EC50) was around 500 nM.

In the case of `COc1ccccc1/C=N/NC(=S)NC(c1ccccc1)c1ccccc1` [CB41], in assay [2], the GI50 was around 5000 nM.

On to `COc1ccnc(NC(=S)N/N=C/c2ccccc2OC)c1` [CB51], for which, in assay [2], the concentration for 50% growth inhibition (GI50) was around 10000 nM.

On to `CCOc1ccccc1NC(=S)N/N=C/c1cc(O)ccc1OC` [CB74], for which, in assay [1] (values in nM), the half-maximal effective concentration (EC50) is around 1000 nM.

Turning to `COc1ccccc1/C=N/NC(=S)Nc1cccnc1Cl` [CB39], in assay [2], the 50% growth inhibitory concentration (GI50) is around 3000 nM.

On to `COc1cccc(/C=N/NC(=S)Nc2cccc(C)c2)c1OC` [C20], for which the “GI50 (HeLa)” value in assay [2] is “no activity”.

In turn, `COc1ccccc1/C=N/NC(=S)Nc1c(C)cccc1OC` [CB38] showed a GI50 in assay [2] of around 3000 nM.

Turning to `COc1ccccc1/C=N/NC(=S)Nc1cc(-c2ccccc2)ccc1OC` [CB59], in assay [1] (values in nM), the EC50 was around 10000 nM.

In assay [2], `COc1ccccc1/C=N/NC(=S)Nc1cnccc1C(F)(F)F` [CB48] returned a GI50 of 100 to 300 nM.

In assay [2], `COc1ccccc1/C=N/NC(=S)Nc1cccc(C#N)c1` [C11] yielded a GI50 of 2000 nM.

In assay [2], `COc1ccccc1/C=N/NC(=S)Nc1cccc(F)c1` [C17] displayed a GI50 of around 1000 nM.

The molecule `COc1ccc(OC)c(/C=N/NC(=S)Nc2cccc(C)c2)c1` [C19] came in with a GI50 in assay [2] of at least 15000 nM.

Consider `COc1ccccc1/C=N/NC(=S)Nc1cccc2c1CCNC2` [CB69], for which, in assay [1] (values in nM), the EC50 is above 10000 nM.

The molecule `COc1ccccc1/C=N/NC(=S)Nc1ccc(C#N)cc1` [C5] showed a GI50 in assay [2] of around 20000 nM.

For the molecule `CCOc1ccccc1NC(=S)N/N=C/c1cccnc1N` [CB70], in assay [1] (values in nM), the EC50 is around 1000 nM.

For `COc1ccccc1/C=N/NC(=S)Nc1ccc(C(C)C)cc1` [CB43], the concentration for 50% growth inhibition (GI50) in assay [2] was around 5000 nM.

`COc1ccccc1Nc1nnc(-c2ccccc2OC)[nH]1` [CB78]: the EC50 in assay [1] (values in nM) was above 10000 nM.

Turning to `COc1ccccc1/C(C)=N/NC(=S)Nc1cccc(C)c1` [C3], the GI50 in assay [2] was at least 20000 nM.

With `CCc1ccccc1NC(=S)N/N=C/c1ccccc1OC` [CB45], in assay [2], the “Anti-proliferative activity” value is “greatly increase the anti-proliferative activity” and the 50% growth inhibitory concentration (GI50) is 13 nM.

For the molecule `COc1ccccc1/C=N/N(C)C(=S)Nc1cccc(C)c1` [C2], in assay [2], the GI50 was around 15000 nM.

In the case of `COc1ccccc1/C=N/NC(=S)Nc1ccccc1C#N` [CB37], in assay [2], the concentration for 50% growth inhibition (GI50) is around 3000 nM.

For `Cc1cccc(NC(=S)N/N=C/c2ccccc2F)c1` [C27], the 50% growth inhibitory concentration (GI50) in assay [2] is at least 20000 nM.

Turning to `COc1ccccc1/C=N/NC(=S)NCc1ccccc1` [C25], in assay [2], the “GI50 (HeLa)” value is “no activity”.

Take `COc1ccccc1/C=N/NC(=S)Nc1ccccc1C(C)C` [CB46]: in assay [2], the “Anti-proliferative activity” value is “greatly increase the anti-proliferative activity” and the GI50 was 3 nM.

Consider `COc1ccccc1/C=N/NC(=S)Nc1ccccc1OCC(C)C` [CB56], for which the EC50 in assay [1] (values in nM) is around 1000 nM.

On to `CCOc1ccccc1NC(=S)N/N=C/c1cnccc1C` [CB71], for which the concentration for a half-maximal effect (EC50) in assay [1] (values in nM) was around 500 nM.

In turn, `COc1ccccc1/C=N/NC(=S)Nc1c(C)cccc1C` [CB44] displayed a 50% growth inhibitory concentration (GI50) in assay [2] of around 5000 nM.

With `COc1ccccc1/C=N/NC(=S)Nc1ccc(N)c(C(F)(F)F)c1` [CB65], the half-maximal effective concentration (EC50) in assay [1] (values in nM) worked out at 100 nM.

In assay [2], `COc1ccccc1/C=N/NC(=S)Nc1cccc(Cl)c1` [C24] had a GI50 of 500 nM.

For `COc1ccccc1/C=N/NC(=S)Nc1cccnc1C` [CB52], the GI50 in assay [2] was in the range of 100 to 300 nM.

`COc1ccccc1/C=N/NC(=S)Nc1cc(C)cc(C)c1` [CB30] displayed a GI50 in assay [2] of 500 nM.

For the molecule `Cc1cccc(NC(=S)N/N=C/c2ccccc2C)c1` [C22], the “GI50 (HeLa)” value in assay [2] is “no activity”.

Molecule `COc1ccccc1/C=N/NC(=S)Nc1cc(Cl)cc(Cl)c1` [C16] gave a GI50 in assay [2] of 2600 nM.

With `COc1ccccc1/C=N/NC(=S)Nc1ccc(F)c(Cl)c1` [C28], the GI50 in assay [2] is around 3000 nM.

With `CCN(CC)CCOc1ccccc1NC(=S)N/N=C/c1ccccc1OC` [CB66], in assay [1] (values in nM), the EC50 is above 10000 nM.

Take `COC(=O)c1sccc1NC(=S)N/N=C/c1ccccc1OC` [CB50]: the GI50 in assay [2] was around 3000 nM.

In assay [2], `COc1ccccc1/C=N/NC(=S)Nc1ccc(F)c(C)c1` [CB29] registered a 50% growth inhibitory concentration (GI50) of 1000 nM.

As for `COc1ccccc1/C=N/N(C)C(=S)N(C)c1cccc(C)c1` [C4], the GI50 in assay [2] was at least 20000 nM.

As for `COc1ccccc1/C=N/NC(=S)NCc1cccc(C)c1` [CB36], in assay [2], the concentration for 50% growth inhibition (GI50) was around 5000 nM.

`COc1ccccc1/C=N/NC(=S)Nc1ccc(C(F)(F)F)cc1` [C23]: in assay [2], the 50% growth inhibitory concentration (GI50) is at least 20000 nM.

Turning to `CCOc1ccccc1NC(=S)N/N=C/c1ccncc1N` [CB72], the 50% effective concentration (EC50) in assay [1] (values in nM) was above 10000 nM.
